Experimental data from ChEMBL document CHEMBL1134273, “Design, synthesis, and characterization of the antitumor activity of novel ceramide analogues” (J Med Chem, 2001).

Experiments:
CCRF-CEM [1] = test: In vitro growth inhibitory effect in human T-cell acute leukemia cells CCRF-CEM; format: functional, cell-based
CCRF-CEM [2] = test: Percentage increase in caspase-3 activity of CCRF-CEM human T-leukemia cells.; format: functional

Structure (SMILES) | IC50 (CCRF-CEM [1]) | Increase (CCRF-CEM [2])
CCCCCCCCCCCCCCc1nc(S)nc(O)c1CC | – | 1.2%
CCCCCCCCCCCCCCc1nc(O)nc(O)c1CC | – | 1.7%

The next lines start with results.

IC50 (CCRF-CEM [1]) | Structure (SMILES) | Increase (CCRF-CEM [2])
31.6 µM | CCCCCCCCCCCCC/C=C/[C@@H](O)[C@H](CO)NC(C)=O | 2.8%
7.9 µM | CCCCCCCCCCCCCCc1c(O)nc(O)nc1CC | 8.1%
1.7 µM | CCCCCCCCCCCCCCc1c(O)nc(S)nc1CC | 5%
